The values below are quoted from earlier work in US9174839B2, “Methods and compositions for wound healing” (IMBED BIOSCIENCES, INC., priority 2008, dated 2015).

For data set [1] the following is noted: incisional wounds.
For data set [2], the system named is fibroblasts. To be noted: in vitro monolayer cell cultures.
For data set [3], the system named is lymphocytes. The settings on record: in vitro.
The subject of data set [4] is keratinocytes. To be noted: in vitro monolayer cell cultures.
The test system of data set [5] is hepatocytes. The settings on record: in vitro.

Regarding `CC1=C(/C=C/C(C)=C/C=C/C(C)=C/C(=O)O)C(C)(C)CCC1` [tretinoin], in data set [1], the fibroblastic proliferation result was “increased” and the production of collagen result is recorded as “diminished”.
As to silver ions, in data set [2], the toxicity to fibroblasts result is “cytotoxic effects”. Moreover, the “cytotoxic effects on lymphocytes” value in data set [3] is “cytotoxic effects”. The toxicity to keratinocytes entry in data set [4] is “cytotoxic effects”. Besides, the “cytotoxic effects on hepatocytes” value in data set [5] is listed as “cytotoxic effects”.
